From PubChem BioAssay (NCI)
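How tested: cells in 96-well plates exposed to compound for 48 hours at five concentrations. Abbreviation: GI50, concentration required for 50% inhibition of growth. TGI marks complete inhibition of growth.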

Experiments:
Assay in all cases: DTP human tumour cell line panel, 48 h
786-0 renal = system: 786-0 renal
A498 renal = system: A498 renal
A549 NSCLC = system: A549 NSCLC
ACHN renal = system: ACHN renal
CAKI-1 renal = system: CAKI-1 renal
CCRF-CEM leukemia = system: CCRF-CEM leukemia
COLO 205 colon = system: COLO 205 colon
DMS 114 small cell lung = system: DMS 114 small cell lung
DMS 273 small cell lung = system: DMS 273 small cell lung
EKVX NSCLC = system: EKVX NSCLC
HCC-2998 colon = system: HCC-2998 colon
HCT-15 colon = system: HCT-15 colon
HL-60(TB) leukemia = system: HL-60(TB) leukemia
HOP-18 NSCLC = system: HOP-18 NSCLC
HOP-62 NSCLC = system: HOP-62 NSCLC
HOP-92 NSCLC = system: HOP-92 NSCLC
HT29 colon = system: HT29 colon
IGROV1 ovarian = system: IGROV1 ovarian
K-562 leukemia = system: K-562 leukemia
KM12 colon = system: KM12 colon
KM20L2 colon = system: KM20L2 colon
LXFL 529 NSCLC = system: LXFL 529 NSCLC
M14 melanoma = system: M14 melanoma
MALME-3M melanoma = system: MALME-3M melanoma
MOLT-4 leukemia = system: MOLT-4 leukemia
NCI-H226 lung = system: NCI-H226 lung
NCI-H23 lung = system: NCI-H23 lung
NCI-H460 lung = system: NCI-H460 lung
NCI-H522 lung = system: NCI-H522 lung
OVCAR-3 ovarian = system: OVCAR-3 ovarian
OVCAR-4 ovarian = system: OVCAR-4 ovarian
OVCAR-5 ovarian = system: OVCAR-5 ovarian
OVCAR-8 ovarian = system: OVCAR-8 ovarian
RPMI-8226 leukemia = system: RPMI-8226 leukemia
RXF 393 renal = system: RXF 393 renal
SF-268 CNS = system: SF-268 CNS
SF-295 CNS = system: SF-295 CNS
SF-539 CNS = system: SF-539 CNS
SK-MEL-2 melanoma = system: SK-MEL-2 melanoma
SK-MEL-28 melanoma = system: SK-MEL-28 melanoma
SK-MEL-5 melanoma = system: SK-MEL-5 melanoma
SK-OV-3 ovarian = system: SK-OV-3 ovarian
SN12C renal = system: SN12C renal
SNB-19 CNS = system: SNB-19 CNS
SNB-75 CNS = system: SNB-75 CNS
SNB-78 CNS = system: SNB-78 CNS
SW-620 colon = system: SW-620 colon
TK-10 renal = system: TK-10 renal
U251 CNS = system: U251 CNS
UACC-257 melanoma = system: UACC-257 melanoma
UACC-62 melanoma = system: UACC-62 melanoma
UO-31 renal = system: UO-31 renal
XF 498 CNS = system: XF 498 CNS
DLD-1 colon = system: DLD-1 colon
HCT-116 colon = system: HCT-116 colon
LOX IMVI melanoma = system: LOX IMVI melanoma
M19-MEL melanoma = system: M19-MEL melanoma

SMILES: Cn1nc(N)nc1N=S(C)(C)=N
- TGI (786-0 renal): > 100 µM
- TGI (A498 renal): > 100 µM
- TGI (A549 NSCLC): > 100 µM
- TGI (ACHN renal): > 100 µM
- TGI (CAKI-1 renal): > 100 µM
- TGI (CCRF-CEM leukemia): > 100 µM
- TGI (COLO 205 colon): > 100 µM
- TGI (DMS 114 small cell lung): > 100 µM
- TGI (DMS 273 small cell lung): > 100 µM
- TGI (EKVX NSCLC): > 100 µM
- TGI (HCC-2998 colon): > 100 µM
- TGI (HCT-15 colon): > 100 µM
- TGI (HL-60(TB) leukemia): > 100 µM
- TGI (HOP-18 NSCLC): > 100 µM
- TGI (HOP-62 NSCLC): > 100 µM
- TGI (HOP-92 NSCLC): > 100 µM
- TGI (HT29 colon): > 100 µM
- TGI (IGROV1 ovarian): > 100 µM
- TGI (K-562 leukemia): > 100 µM
- TGI (KM12 colon): > 100 µM
- TGI (KM20L2 colon): > 100 µM
- TGI (LXFL 529 NSCLC): > 100 µM
- TGI (M14 melanoma): > 100 µM
- TGI (MALME-3M melanoma): > 100 µM
- TGI (MOLT-4 leukemia): > 100 µM
- TGI (NCI-H226 lung): > 100 µM
- TGI (NCI-H23 lung): > 100 µM
- TGI (NCI-H460 lung): > 100 µM
- TGI (NCI-H522 lung): > 100 µM
- TGI (OVCAR-3 ovarian): > 100 µM
- TGI (OVCAR-4 ovarian): > 100 µM
- TGI (OVCAR-5 ovarian): > 100 µM
- TGI (OVCAR-8 ovarian): > 100 µM
- TGI (RPMI-8226 leukemia): > 100 µM
- TGI (RXF 393 renal): > 100 µM
- TGI (SF-268 CNS): > 100 µM
- TGI (SF-295 CNS): > 100 µM
- TGI (SF-539 CNS): > 100 µM
- TGI (SK-MEL-2 melanoma): > 100 µM
- TGI (SK-MEL-28 melanoma): > 100 µM
- TGI (SK-MEL-5 melanoma): > 100 µM
- TGI (SK-OV-3 ovarian): > 100 µM
- TGI (SN12C renal): > 100 µM
- TGI (SNB-19 CNS): > 100 µM
- TGI (SNB-75 CNS): > 100 µM
- TGI (SNB-78 CNS): > 100 µM
- TGI (SW-620 colon): > 100 µM
- TGI (TK-10 renal): > 100 µM
- TGI (U251 CNS): > 100 µM
- TGI (UACC-257 melanoma): > 100 µM
- TGI (UACC-62 melanoma): > 100 µM
- TGI (UO-31 renal): > 100 µM
- TGI (XF 498 CNS): > 100 µM

SMILES: COc1cc2c(cc1OC)[Se]c1cc(OC)c(OC)cc1[Se]2
- GI50 (786-0 renal): > 100 µM
- TGI (786-0 renal): > 100 µM
- GI50 (A498 renal): > 100 µM
- TGI (A498 renal): > 100 µM
- GI50 (A549 NSCLC): > 100 µM
- TGI (A549 NSCLC): > 100 µM
- GI50 (ACHN renal): > 100 µM
- TGI (ACHN renal): > 100 µM
- GI50 (CAKI-1 renal): > 100 µM
- TGI (CAKI-1 renal): > 100 µM
- GI50 (CCRF-CEM leukemia): > 100 µM
- TGI (CCRF-CEM leukemia): > 100 µM
- GI50 (DLD-1 colon): > 100 µM
- TGI (DLD-1 colon): > 100 µM
- GI50 (DMS 114 small cell lung): 4.77 µM
- TGI (DMS 114 small cell lung): > 100 µM
- TGI (DMS 273 small cell lung): > 100 µM
- GI50 (HCT-116 colon): > 100 µM
- TGI (HCT-116 colon): > 100 µM
- TGI (HCT-15 colon): > 100 µM
- TGI (HOP-18 NSCLC): > 100 µM
- GI50 (HOP-62 NSCLC): > 100 µM
- TGI (HOP-62 NSCLC): > 100 µM
- TGI (HOP-92 NSCLC): > 100 µM
- GI50 (HT29 colon): 4.32 µM
- TGI (HT29 colon): > 100 µM
- GI50 (IGROV1 ovarian): > 100 µM
- TGI (IGROV1 ovarian): > 100 µM
- GI50 (K-562 leukemia): 5.08 µM
- TGI (K-562 leukemia): > 100 µM
- GI50 (KM12 colon): 3.54 µM
- TGI (KM12 colon): > 100 µM
- TGI (LOX IMVI melanoma): > 100 µM
- GI50 (LXFL 529 NSCLC): > 100 µM
- TGI (LXFL 529 NSCLC): > 100 µM
- GI50 (M14 melanoma): > 100 µM
- TGI (M14 melanoma): > 100 µM
- GI50 (M19-MEL melanoma): > 100 µM
- TGI (M19-MEL melanoma): > 100 µM
- GI50 (MALME-3M melanoma): > 100 µM
- TGI (MALME-3M melanoma): > 100 µM
- TGI (MOLT-4 leukemia): > 100 µM
- GI50 (NCI-H226 lung): > 100 µM
- TGI (NCI-H226 lung): > 100 µM
- GI50 (NCI-H23 lung): > 100 µM
- TGI (NCI-H23 lung): > 100 µM
- GI50 (NCI-H460 lung): > 100 µM
- TGI (NCI-H460 lung): > 100 µM
- GI50 (NCI-H522 lung): > 100 µM
- TGI (NCI-H522 lung): > 100 µM
- GI50 (OVCAR-3 ovarian): > 100 µM
- TGI (OVCAR-3 ovarian): > 100 µM
- GI50 (OVCAR-4 ovarian): > 100 µM
- TGI (OVCAR-4 ovarian): > 100 µM
- GI50 (OVCAR-8 ovarian): > 100 µM
- TGI (OVCAR-8 ovarian): > 100 µM
- GI50 (RPMI-8226 leukemia): > 100 µM
- TGI (RPMI-8226 leukemia): > 100 µM
- TGI (RXF 393 renal): > 100 µM
- GI50 (SF-268 CNS): > 100 µM
- TGI (SF-268 CNS): > 100 µM
- TGI (SF-295 CNS): > 100 µM
- TGI (SF-539 CNS): > 100 µM
- GI50 (SK-MEL-2 melanoma): > 100 µM
- TGI (SK-MEL-2 melanoma): > 100 µM
- GI50 (SK-MEL-28 melanoma): > 100 µM
- TGI (SK-MEL-28 melanoma): > 100 µM
- GI50 (SK-MEL-5 melanoma): > 100 µM
- TGI (SK-MEL-5 melanoma): > 100 µM
- GI50 (SK-OV-3 ovarian): > 100 µM
- TGI (SK-OV-3 ovarian): > 100 µM
- GI50 (SN12C renal): > 100 µM
- TGI (SN12C renal): > 100 µM
- GI50 (SNB-19 CNS): > 100 µM
- TGI (SNB-19 CNS): > 100 µM
- TGI (SNB-75 CNS): > 100 µM
- GI50 (SNB-78 CNS): > 100 µM
- TGI (SNB-78 CNS): > 100 µM
- GI50 (SW-620 colon): > 100 µM
- TGI (SW-620 colon): > 100 µM
- GI50 (TK-10 renal): > 100 µM
- TGI (TK-10 renal): > 100 µM
- GI50 (U251 CNS): > 100 µM
- TGI (U251 CNS): > 100 µM
- GI50 (UACC-257 melanoma): > 100 µM
- TGI (UACC-257 melanoma): > 100 µM
- GI50 (UACC-62 melanoma): > 100 µM
- TGI (UACC-62 melanoma): > 100 µM
- GI50 (UO-31 renal): > 100 µM
- TGI (UO-31 renal): > 100 µM
- GI50 (XF 498 CNS): > 100 µM
- TGI (XF 498 CNS): > 100 µM
